Data set [1] is described as follows: Plasma and brain NVS-PAK1-1 concentrations in 5xFAD mice. Format: in vivo. Conditions: for concentration at 4 h: mouse, po, 100 mg/kg, 4 h after final dose. On the procedure: Serial blood was collected from n = 3 per treatment group at 0.5, 1, 2, and 4 hours post dose; with terminal blood and brain collected at 4 hours post dose. A staggered cohort of n = 3 per treatment group were assigned to serial blood collections at 0.5, 1, 2, and 8 hours post dose with terminal blood and brain collected at 4 and 24 hours post dose. Informed by exposure data from the initial PK/PD study, a subsequent chronic PK/PD study was designed to evaluate twice daily treatment of 100 mg/kg (PO) in female and male 5xFAD mice compared to age‐ and sex‐matched vehicle‐treated 5xFAD and vehicle‐treated WT littermate controls (Table S2 in supporting information). Terminal blood and brain was collected at 4 hours after the final dose. […] All in vivo target engagement and PK/PD studies were conducted under blinded conditions for age, genotype, and treatment, and the blind was maintained until after analyses were conducted.
Drug concentrations were prepared immediately before dosing each day. The dose volume was delivered at 10 mL/kg based on each subject's daily weight collected just prior to the morning dose and administered via PO. For the chronic PD study, twice daily dosing (BID) was conducted between 7:00 and 9:00 am each morning and 3:00 to 5:00 pm each evening with the same day's formulation stored at 4°C between dosing intervals.
For serial blood sampling, 50 µL of blood was collected via the tail tip route into heparin‐coated glass capillary tubes (Drummond scientific # 1‐000‐7500‐C/5) in non‐anesthetized mice. For all terminal timepoints, tissue collection was conducted at 4 or 24 hours post dose for acute studies (Tables S1–S2) and 4 hours after the final dose administrated for chronic studies. Mice were anesthetized with isoflurane to the surgical plane of anesthesia. After decapitation, trunk blood was collected into heparin‐coated tubes for terminal PK analysis with the remaining trunk blood decanted into EDTA‐coated tubes for PD analysis. Blood was kept on ice until centrifugation (typically 20–60 minutes post collection), then centrifuged at 19745 g for 10 minutes at 4°C for PK samples and 20 minutes for PD samples (e.g., plasma Aβ40, Aβ42, neurofilament light chain [NfL]), followed by storage at −80°C until analysis. The brain was quickly removed from the skull, briefly rinsed in cold PBS, and divided sagittally at the midline into left and right hemispheres. The left hemisphere without cerebellum was quickly chopped and mixed into three equally aliquoted mixed parts then placed into three cold cryotubes. Cryotubes were immediately snap frozen on dry ice and stored at −80°C until analysis. The right hemisphere was maintained intact and immediately placed on dry ice and stored at −80°C until shipped to Stanford University for Golgi staining and morphological analyses.
For plasma samples, three volumes of acetonitrile containing internal standard was added to one volume of plasma, and centrifuged at 3000 g for 10 minute; then, the supernatant was removed and analyzed by LC‐MS/MS. Calibration standards and quality controls were prepared from a 1 mg/mL stock solution and subsequently a series of working solutions in methanol:water (1:1, v/v) that are spiked into blank plasma to yield a series of calibration standard samples in the range of 1 ng/mL to 10 µg/mL and QC samples at three concentration levels (low, middle, and high). All plasma samples were treated identically to the calibration standards and QC samples. For analysis of brain, one third of the left mixed‐chopped hemisphere was homogenized in three volumes of PBS buffer (pH 7.4; v/w = 3/1). Subsequently, three volumes of acetonitrile‐containing internal standard was added to one volume of each tissue homogenate, and the mixture was vortexed, centrifuged at 3000 g for 10 minutes, and supernatants were used for LC‐MS/MS.

In data set [2] the test system is NfL, Aβ40, Aβ42. Kind of data set: Plasma NfL and plasma/brain Aβ40, Aβ42 ELISA in chronically treated 5xFAD mice. Format: in vivo. The following applies: chronic 100 mg/kg BID PO. As for the experimental part: V-PLEX Aβ Peptide Panel 1 (4G8) Kit (Meso Scale Diagnostics, LLC #[…]) was used for Aβ40/Aβ42 detection and S-PLEX Neurofilament L Kit (Meso Scale Diagnostics, LLC # […]) was used for NfL analysis, according to the manufacturer's protocols. […] The supernatant recovered was the DEA soluble fraction containing the soluble Aβ isoforms. […] For ELISA, the DEA-soluble fraction was diluted at 10 times and 40 times and the insoluble fraction was diluted at 40 times and 300 times. The assay plates were read by MESO […] plate reader and analyzed using Discovery Workbench Software (MesoScale Discovery). All samples were run in duplicate and averaged for analysis. Brain concentrations of the soluble and insoluble Aβ were normalized to total protein. All samples from a single plasma collection timepoint were run together on the appropriate MSD plate with the kit provided calibration standards.
Background: An ELISA detects its analyte on a solid surface through an enzyme-linked reagent.

Structures are written as SMILES. Read-outs that look alike come from different tables or passages of the source.

On to `CC(C)NC(=O)N1CC[C@H](NC2=Nc3cc(F)ccc3N(CC(F)F)c3ccc(Cl)cc32)C1` [NVS‐PAK1‐1, (S)‐3‐([2‐chloro‐5‐(2,2‐difluoroethyl)‐8‐fluoro‐5H‐dibenzo[b,e][1,4]diazepin‐11‐yl]amino)‐N‐isopropylpyrrolidine‐1‐carboxamide], for which the concentration at 4 h in data set [1] (female, 5xFAD, brain, aged 5xFAD females, 100 mg/kg BID PO 31 days, read-out: brain concentration) came out at 58.3 ± 26.1 ng/g; in data set [1] (female, 5xFAD, brain, young 5xFAD females, 100 mg/kg BID PO 12 weeks, read-out: mean brain concentration), 44.9 ± 14.1 ng/g; in data set [1] (female, 5xFAD, plasma, aged 5xFAD females, 100 mg/kg BID PO 31 days, read-out: plasma concentration) it was 354 ± 138 ng/mL; in data set [1] (female, 5xFAD, plasma, young 5xFAD females, 100 mg/kg BID PO 12 weeks, read-out: average plasma concentration), 324 ± 104 ng/mL; in data set [1] (male, 5xFAD, brain, aged 5xFAD males, 100 mg/kg BID PO 31 days, read-out: brain concentration), 49.1 ± 17.6 ng/g; in data set [1] (male, 5xFAD, brain, young 5xFAD males, 100 mg/kg BID PO 12 weeks, read-out: mean brain concentration) it was 98.5 ± 34.4 ng/g. The concentration at 4 h in data set [1] (male, 5xFAD, plasma, aged 5xFAD males, 100 mg/kg BID PO 31 days, read-out: plasma concentration) was determined as 140 ± 27.9 ng/mL; in data set [1] (male, 5xFAD, plasma, young 5xFAD males, 100 mg/kg BID PO 12 weeks, read-out: average plasma concentration), 309 ± 104 ng/mL. The “levels in brain or plasma” value in data set [1] (single PO dose 100 mg/kg, 24 hours post administration, 5xFAD) is given as “lack of detectable levels”. The brain concentration result in data set [1] (single PO dose 10 or 50 mg/kg, 24 hours post dose, aged 5xFAD) is “BLOQ”. Also, the “brain amyloid accumulation, soluble (DEA) and insoluble (FA) fractions” value in data set [2] (5xFAD) is listed as “mirrored Aβ plasma values”. In data set [2] (young, aged, male, or female 5xFAD cohorts), the “plasma NfL” value is given as “did not significantly lower”.
